Measured values as given in paper PMC8799717, “Pharmacological targeting PIKfyve and tubulin as an effective treatment strategy for double-hit lymphoma” (Cell Death Discovery, 2022).

Tests used:
TNIK = TNIK (Homo sapiens, UniProt Q9UKE5); assay: biochemical; set-up: KINOMEscan active-site-directed competition binding panel, 468 kinases, percent of DMSO control at 1 uM; conditions: KINOMEscan binding, percent of DMSO control; read-out: Ctrl%
MARK3 = MARK3 (Homo sapiens, UniProt P27448); assay: biochemical; set-up: KINOMEscan active-site-directed competition binding panel, 468 kinases, percent of DMSO control at 1 uM; conditions: KINOMEscan binding, percent of DMSO control; read-out: Ctrl%
ALK(L1196M) = ALK(L1196M) (Homo sapiens, UniProt Q9UM73, L1196M); assay: biochemical; set-up: KINOMEscan active-site-directed competition binding panel, 468 kinases, percent of DMSO control at 1 uM; conditions: KINOMEscan binding, percent of DMSO control; read-out: Ctrl%
EPHB1 = EPHB1 (Homo sapiens, UniProt P54762); assay: biochemical; set-up: KINOMEscan active-site-directed competition binding panel, 468 kinases, percent of DMSO control at 1 uM; conditions: KINOMEscan binding, percent of DMSO control; read-out: Ctrl%
VEGFR2 = biological target: T1, VEGFR2 (Homo sapiens, UniProt P35968); assay: biochemical; set-up: KINOMEscan active-site-directed competition binding panel, 468 kinases, percent of DMSO control at 1 uM; conditions: KINOMEscan binding, percent of DMSO control; read-out: Ctrl%
T1 construct: gene KDR

CAMKK1 = CAMKK1 (Homo sapiens, UniProt Q8N5S9); assay: biochemical; set-up: KINOMEscan active-site-directed competition binding panel, 468 kinases, percent of DMSO control at 1 uM; conditions: KINOMEscan binding, percent of DMSO control; read-out: Ctrl%
PLK1 = PLK1 (Homo sapiens, UniProt P53350); assay: biochemical; set-up: KINOMEscan active-site-directed competition binding panel, 468 kinases, percent of DMSO control at 1 uM; conditions: KINOMEscan binding, percent of DMSO control; read-out: Ctrl%
[1] = biological target: T2, RPS6KA4(Kin.Dom.2-C-terminal) (Homo sapiens, UniProt O75676); assay: biochemical; set-up: KINOMEscan active-site-directed competition binding panel, 468 kinases, percent of DMSO control at 1 uM; conditions: KINOMEscan binding, percent of DMSO control; read-out: Ctrl%
T2 construct: Kin.Dom.2-C-terminal

CIT = CIT (Homo sapiens, UniProt O14578); assay: biochemical; set-up: KINOMEscan active-site-directed competition binding panel, 468 kinases, percent of DMSO control at 1 uM; conditions: KINOMEscan binding, percent of DMSO control; read-out: Ctrl%
MINK = biological target: T3, MINK (Homo sapiens, UniProt Q8N4C8); assay: biochemical; set-up: KINOMEscan active-site-directed competition binding panel, 468 kinases, percent of DMSO control at 1 uM; conditions: KINOMEscan binding, percent of DMSO control; read-out: Ctrl%
T3 construct: gene MINK1

[2] = biological target: T4, RPS6KA5(Kin.Dom.2-C-terminal) (Homo sapiens, UniProt O75582); assay: biochemical; set-up: KINOMEscan active-site-directed competition binding panel, 468 kinases, percent of DMSO control at 1 uM; conditions: KINOMEscan binding, percent of DMSO control; read-out: Ctrl%
T4 construct: Kin.Dom.2-C-terminal

STK16 = STK16 (Homo sapiens, UniProt O75716); assay: biochemical; set-up: KINOMEscan active-site-directed competition binding panel, 468 kinases, percent of DMSO control at 1 uM; conditions: KINOMEscan binding, percent of DMSO control; read-out: Ctrl%
CSNK1A1 = CSNK1A1 (Homo sapiens, UniProt P48729); assay: biochemical; set-up: KINOMEscan active-site-directed competition binding panel, 468 kinases, percent of DMSO control at 1 uM; conditions: KINOMEscan binding, percent of DMSO control; read-out: Ctrl%
HIPK1 = HIPK1 (Homo sapiens, UniProt Q86Z02); assay: biochemical; set-up: KINOMEscan active-site-directed competition binding panel, 468 kinases, percent of DMSO control at 1 uM; conditions: KINOMEscan binding, percent of DMSO control; read-out: Ctrl%
NDR1 = biological target: T5, NDR1 (Homo sapiens, UniProt Q15208); assay: biochemical; set-up: KINOMEscan active-site-directed competition binding panel, 468 kinases, percent of DMSO control at 1 uM; conditions: KINOMEscan binding, percent of DMSO control; read-out: Ctrl%
T5 construct: gene STK38

PAK2 = PAK2 (Homo sapiens, UniProt Q13177); assay: biochemical; set-up: KINOMEscan active-site-directed competition binding panel, 468 kinases, percent of DMSO control at 1 uM; conditions: KINOMEscan binding, percent of DMSO control; read-out: Ctrl%
PIK4CB = biological target: T6, PIK4CB (Homo sapiens, UniProt Q9UBF8); assay: biochemical; set-up: KINOMEscan active-site-directed competition binding panel, 468 kinases, percent of DMSO control at 1 uM; conditions: KINOMEscan binding, percent of DMSO control; read-out: Ctrl%
T6 construct: gene PI4KB

DDR1 = DDR1 (Homo sapiens, UniProt Q08345); assay: KINOMEscan competition binding, single dose […]; conditions: read-out: % of control at 1 μM
KIT = KIT (Homo sapiens, UniProt P10721); assay: KINOMEscan competition binding, single dose […]; conditions: read-out: % of control at 1 μM
RAF1 = RAF1 (Homo sapiens, UniProt P04049); assay: KINOMEscan competition binding, single dose […]; conditions: read-out: % of control at 1 μM
DYRK1B = DYRK1B (Homo sapiens, UniProt Q9Y463); assay: biochemical; set-up: KINOMEscan active-site-directed competition binding panel, 468 kinases, percent of DMSO control at 1 uM; conditions: KINOMEscan binding, percent of DMSO control; read-out: Ctrl%
STK33 = STK33 (Homo sapiens, UniProt Q9BYT3); assay: biochemical; set-up: KINOMEscan active-site-directed competition binding panel, 468 kinases, percent of DMSO control at 1 uM; conditions: KINOMEscan binding, percent of DMSO control; read-out: Ctrl%
LTK = LTK (Homo sapiens, UniProt P29376); assay: biochemical; set-up: KINOMEscan active-site-directed competition binding panel, 468 kinases, percent of DMSO control at 1 uM; conditions: KINOMEscan binding, percent of DMSO control; read-out: Ctrl%
DDR2 = DDR2 (Homo sapiens, UniProt Q16832); assay: KINOMEscan competition binding, single dose […]; conditions: read-out: % of control at 1 μM
LCK = LCK (Homo sapiens, UniProt P06239); assay: KINOMEscan competition binding, single dose […]; conditions: read-out: % of control at 1 μM
EPHA8 = EPHA8 (Homo sapiens, UniProt P29322); assay: KINOMEscan competition binding, single dose […]; conditions: read-out: % of control at 1 μM

DDR2, sequence (Q16832 22-855): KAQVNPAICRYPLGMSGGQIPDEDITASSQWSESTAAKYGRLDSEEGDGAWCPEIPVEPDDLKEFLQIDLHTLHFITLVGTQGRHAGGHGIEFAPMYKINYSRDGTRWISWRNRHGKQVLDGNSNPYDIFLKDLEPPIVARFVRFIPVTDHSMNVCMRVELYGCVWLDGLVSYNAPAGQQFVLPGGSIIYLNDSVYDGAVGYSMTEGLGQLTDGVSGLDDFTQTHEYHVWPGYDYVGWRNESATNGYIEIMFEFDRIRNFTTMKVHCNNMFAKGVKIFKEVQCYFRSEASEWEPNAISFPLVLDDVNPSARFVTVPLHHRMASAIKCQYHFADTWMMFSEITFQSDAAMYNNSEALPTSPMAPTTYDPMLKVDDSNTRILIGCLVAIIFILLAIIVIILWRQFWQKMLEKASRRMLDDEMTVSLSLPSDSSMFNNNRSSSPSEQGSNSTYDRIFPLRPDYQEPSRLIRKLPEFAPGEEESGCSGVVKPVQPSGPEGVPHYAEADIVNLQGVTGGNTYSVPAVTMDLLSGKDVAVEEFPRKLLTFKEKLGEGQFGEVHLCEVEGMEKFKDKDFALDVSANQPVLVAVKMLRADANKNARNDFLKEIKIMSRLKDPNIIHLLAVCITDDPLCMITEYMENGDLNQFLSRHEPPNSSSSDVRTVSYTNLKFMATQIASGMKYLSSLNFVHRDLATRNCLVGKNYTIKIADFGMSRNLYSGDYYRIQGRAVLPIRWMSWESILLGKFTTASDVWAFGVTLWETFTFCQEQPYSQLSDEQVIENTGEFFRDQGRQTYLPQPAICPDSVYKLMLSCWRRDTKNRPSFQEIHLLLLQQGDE
HIPK1, sequence (Q86Z02 whole entry): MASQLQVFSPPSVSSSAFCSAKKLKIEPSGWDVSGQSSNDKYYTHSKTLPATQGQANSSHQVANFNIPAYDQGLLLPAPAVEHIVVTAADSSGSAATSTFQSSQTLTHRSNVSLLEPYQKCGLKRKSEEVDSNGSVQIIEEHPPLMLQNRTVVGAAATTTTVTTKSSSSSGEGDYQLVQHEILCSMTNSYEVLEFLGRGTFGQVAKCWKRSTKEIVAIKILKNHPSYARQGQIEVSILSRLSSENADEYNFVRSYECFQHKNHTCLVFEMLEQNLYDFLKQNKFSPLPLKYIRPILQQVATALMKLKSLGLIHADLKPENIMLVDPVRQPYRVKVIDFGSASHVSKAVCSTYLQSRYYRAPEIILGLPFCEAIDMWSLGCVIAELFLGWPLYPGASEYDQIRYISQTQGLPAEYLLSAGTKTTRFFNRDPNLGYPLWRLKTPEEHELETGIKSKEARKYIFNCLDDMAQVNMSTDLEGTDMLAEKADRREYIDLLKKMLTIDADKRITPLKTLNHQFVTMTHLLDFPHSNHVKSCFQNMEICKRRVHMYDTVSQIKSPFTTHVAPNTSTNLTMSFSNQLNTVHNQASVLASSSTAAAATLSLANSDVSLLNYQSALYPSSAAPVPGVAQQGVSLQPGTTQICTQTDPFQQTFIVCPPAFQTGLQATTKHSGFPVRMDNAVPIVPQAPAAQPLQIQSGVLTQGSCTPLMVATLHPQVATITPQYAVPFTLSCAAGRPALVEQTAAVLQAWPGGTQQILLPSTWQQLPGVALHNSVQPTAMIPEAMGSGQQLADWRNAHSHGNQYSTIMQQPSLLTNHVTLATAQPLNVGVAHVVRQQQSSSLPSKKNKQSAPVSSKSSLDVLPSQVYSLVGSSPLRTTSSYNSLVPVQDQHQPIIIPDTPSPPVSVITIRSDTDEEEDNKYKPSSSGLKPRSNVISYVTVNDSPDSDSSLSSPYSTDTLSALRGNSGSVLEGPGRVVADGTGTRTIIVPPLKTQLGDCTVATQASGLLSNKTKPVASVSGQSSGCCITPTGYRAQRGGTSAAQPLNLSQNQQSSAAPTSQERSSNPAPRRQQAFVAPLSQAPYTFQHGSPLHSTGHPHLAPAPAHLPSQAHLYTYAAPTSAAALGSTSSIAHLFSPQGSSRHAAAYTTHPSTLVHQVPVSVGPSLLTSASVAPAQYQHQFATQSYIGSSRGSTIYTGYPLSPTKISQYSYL
CAMKK1, sequence (Q8N5S9 whole entry): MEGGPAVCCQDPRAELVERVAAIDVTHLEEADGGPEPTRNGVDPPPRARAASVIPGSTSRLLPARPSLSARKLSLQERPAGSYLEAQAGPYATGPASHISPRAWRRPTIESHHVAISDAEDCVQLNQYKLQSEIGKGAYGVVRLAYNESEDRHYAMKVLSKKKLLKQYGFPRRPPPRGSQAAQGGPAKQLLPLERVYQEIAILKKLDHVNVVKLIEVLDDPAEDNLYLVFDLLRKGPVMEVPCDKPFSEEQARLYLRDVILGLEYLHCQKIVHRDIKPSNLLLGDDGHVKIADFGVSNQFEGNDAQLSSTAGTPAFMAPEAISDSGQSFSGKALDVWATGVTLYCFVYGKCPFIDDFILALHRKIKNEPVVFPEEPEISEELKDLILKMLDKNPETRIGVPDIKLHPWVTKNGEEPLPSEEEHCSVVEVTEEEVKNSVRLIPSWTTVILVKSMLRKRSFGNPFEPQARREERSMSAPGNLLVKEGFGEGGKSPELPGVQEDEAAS
MARK3, sequence (P27448 whole entry): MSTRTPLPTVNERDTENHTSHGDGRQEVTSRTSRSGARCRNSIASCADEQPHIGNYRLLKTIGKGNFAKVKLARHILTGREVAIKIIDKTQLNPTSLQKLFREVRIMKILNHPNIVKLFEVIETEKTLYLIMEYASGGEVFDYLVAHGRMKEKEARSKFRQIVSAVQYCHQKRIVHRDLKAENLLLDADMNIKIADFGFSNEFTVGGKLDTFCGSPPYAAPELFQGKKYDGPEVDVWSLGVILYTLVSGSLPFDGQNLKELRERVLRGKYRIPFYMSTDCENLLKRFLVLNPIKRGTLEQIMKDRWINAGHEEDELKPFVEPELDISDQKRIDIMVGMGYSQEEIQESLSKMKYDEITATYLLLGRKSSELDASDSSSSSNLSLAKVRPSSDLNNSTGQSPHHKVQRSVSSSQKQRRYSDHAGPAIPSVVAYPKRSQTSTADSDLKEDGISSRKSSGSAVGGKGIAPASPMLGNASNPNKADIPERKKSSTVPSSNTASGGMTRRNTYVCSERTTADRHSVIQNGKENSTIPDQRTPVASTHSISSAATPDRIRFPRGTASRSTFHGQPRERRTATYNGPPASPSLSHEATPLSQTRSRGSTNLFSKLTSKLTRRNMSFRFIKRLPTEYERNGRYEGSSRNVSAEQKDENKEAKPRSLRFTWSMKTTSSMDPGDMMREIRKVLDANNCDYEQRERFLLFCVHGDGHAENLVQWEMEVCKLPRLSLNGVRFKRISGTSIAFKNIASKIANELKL
RAF1, sequence (P04049 whole entry): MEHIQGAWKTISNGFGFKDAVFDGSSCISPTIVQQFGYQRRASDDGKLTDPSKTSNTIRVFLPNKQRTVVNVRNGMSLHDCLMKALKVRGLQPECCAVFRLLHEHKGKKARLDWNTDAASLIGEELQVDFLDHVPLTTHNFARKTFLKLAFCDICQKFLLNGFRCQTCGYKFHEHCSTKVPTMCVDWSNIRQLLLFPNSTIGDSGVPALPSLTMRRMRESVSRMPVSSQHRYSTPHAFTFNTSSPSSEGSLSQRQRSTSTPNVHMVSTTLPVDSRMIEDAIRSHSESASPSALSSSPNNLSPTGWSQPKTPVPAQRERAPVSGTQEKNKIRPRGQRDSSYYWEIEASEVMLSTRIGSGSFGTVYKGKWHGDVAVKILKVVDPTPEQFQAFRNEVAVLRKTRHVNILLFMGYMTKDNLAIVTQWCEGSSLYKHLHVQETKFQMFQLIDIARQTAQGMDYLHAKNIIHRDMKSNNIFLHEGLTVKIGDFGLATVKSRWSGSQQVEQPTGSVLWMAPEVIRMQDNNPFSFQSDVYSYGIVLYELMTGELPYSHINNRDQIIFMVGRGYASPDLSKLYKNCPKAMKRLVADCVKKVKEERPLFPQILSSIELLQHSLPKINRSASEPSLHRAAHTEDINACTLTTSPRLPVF
DYRK1B, sequence (Q9Y463 whole entry): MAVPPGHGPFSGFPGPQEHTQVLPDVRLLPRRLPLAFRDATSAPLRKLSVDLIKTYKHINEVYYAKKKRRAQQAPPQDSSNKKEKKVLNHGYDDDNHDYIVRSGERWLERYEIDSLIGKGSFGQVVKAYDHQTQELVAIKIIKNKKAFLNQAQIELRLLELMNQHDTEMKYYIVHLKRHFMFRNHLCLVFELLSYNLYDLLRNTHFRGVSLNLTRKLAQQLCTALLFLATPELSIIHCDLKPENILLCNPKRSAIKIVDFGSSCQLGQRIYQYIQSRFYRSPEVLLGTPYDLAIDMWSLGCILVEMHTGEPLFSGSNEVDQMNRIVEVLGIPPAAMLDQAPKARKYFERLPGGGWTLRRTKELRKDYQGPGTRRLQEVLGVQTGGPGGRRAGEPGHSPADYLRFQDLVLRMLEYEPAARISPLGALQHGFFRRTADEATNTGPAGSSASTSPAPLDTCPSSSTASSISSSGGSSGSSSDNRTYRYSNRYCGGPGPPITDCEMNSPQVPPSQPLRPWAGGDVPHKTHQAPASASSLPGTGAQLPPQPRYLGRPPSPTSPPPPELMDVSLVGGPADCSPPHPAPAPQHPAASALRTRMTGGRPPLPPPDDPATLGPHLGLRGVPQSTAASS
STK16, sequence (O75716 whole entry): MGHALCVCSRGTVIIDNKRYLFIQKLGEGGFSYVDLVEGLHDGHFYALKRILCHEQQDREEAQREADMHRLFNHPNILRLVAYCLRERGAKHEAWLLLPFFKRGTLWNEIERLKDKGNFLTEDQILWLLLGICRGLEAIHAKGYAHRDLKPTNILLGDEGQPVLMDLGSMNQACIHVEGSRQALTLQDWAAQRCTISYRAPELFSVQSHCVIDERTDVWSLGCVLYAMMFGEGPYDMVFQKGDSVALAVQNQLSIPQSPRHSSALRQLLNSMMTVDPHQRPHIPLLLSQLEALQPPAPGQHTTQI

Cc1ccc(NC(=O)c2cccc(C(F)(F)F)c2)cc1Nc1cc(-c2cccnc2)nc2[nH]ccc12 [HZX-02-059]
remaining binding at 1 µM (TNIK): 100% | remaining binding at 1 µM (MARK3): 92% | remaining binding at 1 µM (ALK(L1196M)): 97% | remaining binding at 1 µM (EPHB1): 39% | remaining binding at 1 µM (VEGFR2): 100% | remaining binding at 1 µM (CAMKK1): 97% | remaining binding at 1 µM (PLK1): 100% | remaining binding at 1 µM [1]: 97% | remaining binding at 1 µM (CIT): 64% | remaining binding at 1 µM (MINK): 91% | remaining binding at 1 µM [2]: 99% | remaining binding at 1 µM (STK16): 96% | remaining binding at 1 µM (CSNK1A1): 77% | remaining binding at 1 µM (HIPK1): 74% | remaining binding at 1 µM (NDR1): 100% | remaining binding at 1 µM (PAK2): 88% | remaining binding at 1 µM (PIK4CB): 78% | remaining binding at 1 µM (DDR1): 0.75% | remaining binding at 1 µM (KIT): 1.2% | remaining binding at 1 µM (RAF1): 0.95% | remaining binding at 1 µM (DYRK1B): 97% | remaining binding at 1 µM (STK33): 94% | remaining binding at 1 µM (LTK): 79% | remaining binding at 1 µM (DDR2): 0% | remaining binding at 1 µM (LCK): 0.9% | remaining binding at 1 µM (EPHA8): 0.5%
